Test results taken from patent publication US20250163104A1, “MACROCYCLIC IMMUNOMODULATORS” (priority 2021, published 2025).
Where a SMILES comes first, the peptide text is derived from it. Bridges are numbered along the chain shown (N, C = ends). [ ]: non-standard residue; d: D form. The star is where a group is joined. ξ: configuration not given here. Ala(6-(2-MePh)pyridin-3-yl) = Cc1ccccc1-c1ccc(C[C@H](N)C(=O)O)cn1; Phe(4-(2-Et-4-HO-Ph)) = CCc1cc(O)ccc1-c1ccc(C[C@H](N)C(=O)O)cc1; Phe(3-CF3) = N[C@@H](Cc1cccc(C(F)(F)F)c1)C(=O)O; Ala(morpholin-4-yl) = N[C@@H](CN1CCOCC1)C(=O)O; Phe(4-COOH) = N[C@@H](Cc1ccc(C(=O)O)cc1)C(=O)O; Bip = N[C@@H](Cc1ccc(-c2ccccc2)cc1)C(=O)O; Abu(3R-NH2) = C[C@@H](N)[C@H](N)C(=O)O; Phe(3-Me) = Cc1cccc(C[C@H](N)C(=O)O)c1; Val(3-OH) = CC(C)(O)[C@H](N)C(=O)O; 4Pal = N[C@@H](Cc1ccncc1)C(=O)O; 2Thi = N[C@@H](Cc1cccs1)C(=O)O; Cha = N[C@@H](CC1CCCCC1)C(=O)O; Cit = NC(=O)NCCC[C@H](N)C(=O)O; Thr(3ξ) = CC(O)[C@H](N)C(=O)O; Chg = N[C@H](C(=O)O)C1CCCCC1; hSer = N[C@@H](CCO)C(=O)O; Carboxymethyl = O=C(O)C*; Orn = NCCC[C@H](N)C(=O)O; Dab = NCC[C@H](N)C(=O)O; Abu = CC[C@H](N)C(=O)O; Dap = NC[C@H](N)C(=O)O; Propargyl = C#CC*; CF3 = FC(F)(F)*

molecular target: T1, human PD-1 / PD-L1-Ig binding on Jurkat cell line over-expressing human PD-1 (Jurkat-PD-1) (Homo sapiens, UniProt Q15116); assay: Jurkat-PD-1 Cell Binding High-Content Screening Assay (CBA); type: cell-based; settings: Jurkat-PD-1 cells, PE-labeled PD-L1-Ig 20 nM final; read-out: Jurkat HPD1_PDL1 IC50
T1 construct: expressed in transfected cells; host or cells: Jurkat
T1 sequence (Q15116 25-288): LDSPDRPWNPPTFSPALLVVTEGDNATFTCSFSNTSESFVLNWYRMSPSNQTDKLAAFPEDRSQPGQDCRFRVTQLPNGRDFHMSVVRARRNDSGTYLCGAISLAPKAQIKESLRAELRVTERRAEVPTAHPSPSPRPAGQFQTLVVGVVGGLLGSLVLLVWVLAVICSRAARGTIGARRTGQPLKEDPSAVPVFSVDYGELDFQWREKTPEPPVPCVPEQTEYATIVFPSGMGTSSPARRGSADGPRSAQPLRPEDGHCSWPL
Outline: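 Read-out: high-content imaging of PE-tagged PD-L1-Ig bound to Jurkat cells overexpressing human PD-1, after fixation with 4% paraformaldehyde and Hoechst 33342 nuclear staining. Ligand was used at 20 nM final for 1 hour, after a 2 h compound exposure at 37° C in serum-containing DMEM.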

Structure (SMILES) | IC50
Cc1cccc(C[C@@H]2NC(=O)[C@H](CC(=O)O)NC(=O)[C@H](Cc3ccc(OCC(=O)O)cc3)NC(=O)[C@H](CCN)NC(=O)CSC[C@@H](C(=O)N[C@@H](CCN)C(N)=O)NC(=O)[C@H](CCC(=O)O)NC(=O)[C@H](C(C)(C)O)NC(=O)[C@H](CC3CCCCC3)NC(=O)[C@H](CCN)NC(=O)[C@@H](CC(C)C)NC(=O)[C@H](CCCN)NC(=O)[C@H](Cc3ccc(OC(F)(F)F)cc3)NC(=O)[C@H](Cc3ccc(-c4ccccc4)cc3)NC(=O)[C@H](Cc3ccc(OCC(=O)O)cc3)NC2=O)c1 [Compound 2694] ({CH2CO}-[Dab]Y(Carboxymethyl)D[Phe(3-Me)]Y(Carboxymethyl)[Bip]Y(CF3)[Orn][dL][Dab][Cha][Val(3-OH)]EC[Dab]-NH2; thioether N-14) | 16.5 nM
COCC[C@@H]1NC(=O)[C@H](CN)NC(=O)CSC[C@@H](C(=O)N[C@@H](C)C(N)=O)NC(=O)[C@H]([C@@H](C)O)NC(=O)[C@H](C(C)C)NC(=O)[C@H](CC2CCCCC2)NC(=O)[C@H](CCN)NC(=O)[C@@H](CC(C)C)NC(=O)[C@H](CCCN)NC(=O)[C@H](CCCNC(N)=O)NC(=O)[C@H](Cc2ccc(-c3ccccc3)cc2)NC(=O)[C@H](C(C)C)NC(=O)[C@H](Cc2c[nH]c3ccccc23)NC(=O)[C@H](CC(=O)O)NC1=O [Compound 2133] ({CH2CO}-[Dap][hSer](Me)DWV[Bip][Cit][Orn][dL][Dab][Cha]VTCA-NH2; thioether N-14) | 24.6 nM
CC(C)C[C@H]1NC(=O)[C@H](CCCN)NC(=O)[C@H](Cc2ccc(C(=O)O)cc2)NC(=O)[C@H](Cc2ccc(-c3ccccc3)cc2)NC(=O)[C@H](Cc2ccc(C(=O)O)cc2)NC(=O)[C@H](Cc2cccc(C(F)(F)F)c2)NC(=O)[C@H](CC(N)=O)NC(=O)[C@H](Cc2ccc(C(=O)O)cc2)NC(=O)[C@H]([C@@H](C)N)NC(=O)CSC[C@@H](C(=O)N[C@@H](CCN)C(N)=O)NC(=O)[C@H](CO)NC(=O)[C@H](C(C)(C)O)NC(=O)[C@H](CC2CCCCC2)NC(=O)[C@H](CCN)NC1=O [Example 2717] ({CH2CO}-[Abu(3R-NH2)][Phe(4-COOH)]N[Phe(3-CF3)][Phe(4-COOH)][Bip][Phe(4-COOH)][Orn][dL][Dab][Cha][Val(3-OH)]SC[Dab]-NH2; thioether N-14) | 35.6 nM
CCCC[C@H]1NC(=O)[C@H](CCCN)NC(=O)[C@H](C(C)C)NC(=O)[C@H](Cc2ccc(-c3ccccc3)cc2)NC(=O)[C@H](C(C)C)NC(=O)[C@H](Cc2c[nH]c3ccccc23)NC(=O)[C@H](CC(=O)O)NC(=O)[C@H](Cc2ccncc2)NC(=O)[C@H](Cc2ccc(OCC(=O)O)cc2)NC(=O)CSC[C@@H](C(=O)N[C@@H](C)C(N)=O)NC(=O)[C@H]([C@@H](C)O)NC(=O)[C@H](C(C)C)NC(=O)[C@H](CC2CCCCC2)NC(=O)[C@H](CCN)NC1=O [Compound 1694] | 34.5 nM
CC(C)C[C@@H]1NC(=O)[C@H](Cc2c[nH]c3ccccc23)NC(=O)[C@H](CC(=O)O)NC(=O)[C@H](Cc2ccc(OCC(=O)O)cc2)NC(=O)[C@H](C(C)O)NC(=O)CSC[C@@H](C(N)=O)NC(=O)[C@H](CO)NC(=O)[C@H](C(C)C)NC(=O)[C@H](CC2CCCCC2)NC(=O)[C@H](Cc2cnc[nH]2)NC(=O)[C@@H](CC(C)C)NC(=O)[C@H](CCC(=O)O)NC(=O)[C@H](C(C)C)NC(=O)[C@H](Cc2ccc(-c3ccccc3)cc2)NC1=O (stereo partly drawn) [Compound 2609] ({CH2CO}-[Thr(3ξ)]Y(Carboxymethyl)DWL[Bip]VE[dL]H[Cha]VSC-NH2; thioether N-14) | 89.1 nM
CC(C)C[C@H]1NC(=O)[C@H](CCCN)NC(=O)[C@H](CCCNC(N)=O)NC(=O)[C@H](Cc2ccc(-c3ccccc3)cc2)NC(=O)[C@H](CC2CCCCC2)NC(=O)[C@H](Cc2c[nH]c3ccccc23)NC(=O)[C@H](CC(=O)O)NC(=O)[C@H](Cc2ccc(OCC(=O)O)cc2)NC(=O)[C@H](CN)NC(=O)CSC[C@@H](C(=O)N[C@@H](C)C(N)=O)NC(=O)[C@H]([C@@H](C)O)NC(=O)[C@H](C(C)C)NC(=O)[C@H](CC2CCCCC2)NC(=O)[C@H](CCN)NC1=O [Compound 1361] ({CH2CO}-[Dap]Y(Carboxymethyl)DW[Cha][Bip][Cit][Orn][dL][Dab][Cha]VTCA-NH2; thioether N-14) | 14.9 nM
CC[C@H](C)[C@@H]1NC(=O)[C@H](C(C)C)NC(=O)[C@H](CC2CCCCC2)NC(=O)[C@H](CCN)NC(=O)[C@@H](CC(C)C)NC(=O)[C@H](CCCN)NC(=O)[C@H](CCCNC(N)=O)NC(=O)[C@H](Cc2ccc(-c3ccccc3)cc2)NC(=O)[C@H](C(C)C)NC(=O)[C@H](Cc2c[nH]c3ccccc23)NC(=O)[C@H](CC(=O)O)NC(=O)[C@H](Cc2ccc(OCC(=O)O)cc2)NC(=O)[C@H](CN)NC(=O)CSC[C@@H](C(=O)N[C@@H](C)C(N)=O)NC1=O [Compound 1320] ({CH2CO}-[Dap]Y(Carboxymethyl)DWV[Bip][Cit][Orn][dL][Dab][Cha]VICA-NH2; thioether N-14) | 52.7 nM

The next compounds have a lower IC50 than those just listed; values first:

IC50 | Structure (SMILES)
11.7 nM | CC[C@H](C)[C@@H]1NC(=O)[C@H](Cc2ccc(-c3ccccc3)cc2)NC(=O)[C@H](C(C)C)NC(=O)[C@H](Cc2c[nH]c3ccccc23)NC(=O)[C@H](CC(=O)O)NC(=O)[C@H](Cc2ccncc2)NC(=O)[C@H](Cc2ccc(OCC(=O)O)cc2)NC(=O)CSC[C@@H](C(=O)N[C@@H](C)C(N)=O)NC(=O)[C@H]([C@@H](C)O)NC(=O)[C@H](C(C)C)NC(=O)[C@H](CC2CCCCC2)NC(=O)[C@H](CCN)NC(=O)[C@@H](CC(C)C)NC(=O)[C@H](CCCN)NC1=O [Compound 1332]
10.6 nM | CC(C)C[C@H]1NC(=O)[C@H](CCCN)NC(=O)[C@H](CCC(=O)O)NC(=O)[C@H](Cc2ccc(-c3ccccc3)cc2)NC(=O)[C@H](C(C)C)NC(=O)[C@H](Cc2cccs2)NC(=O)[C@H](CC(=O)O)NC(=O)[C@H](Cc2ccncc2)NC(=O)[C@H](CC(N)=O)NC(=O)CSC[C@@H](C(=O)N[C@@H](C)C(N)=O)NC(=O)[C@H]([C@@H](C)O)NC(=O)[C@H](C(C)C)NC(=O)[C@H](CC2CCCCC2)NC(=O)[C@H](CCN)NC1=O [Compound 2199] ({CH2CO}-N[4Pal]D[2Thi]V[Bip]E[Orn][dL][Dab][Cha]VTCA-NH2; thioether N-14)
8.3 nM | C#CCOc1ccc(C[C@@H]2NC(=O)[C@H](Cc3ccc(-c4ccccc4)cc3)NC(=O)[C@H](Cc3ccc(OCC(=O)O)cc3)NC(=O)[C@H](Cc3cccc(C)c3)NC(=O)[C@H](CC(=O)O)NC(=O)[C@H](Cc3ccc(OCC(=O)O)cc3)NC(=O)[C@H](CC)NC(=O)CSC[C@@H](C(=O)N[C@@H](CCN)C(N)=O)NC(=O)[C@H](CCC(=O)O)NC(=O)[C@H](C(C)C)NC(=O)[C@H](CC3CCCCC3)NC(=O)[C@H](CCN)NC(=O)[C@@H](CC(C)C)NC(=O)[C@H](CCCN)NC2=O)cc1 [Compound 1843] ({CH2CO}-[Abu]Y(Carboxymethyl)D[Phe(3-Me)]Y(Carboxymethyl)[Bip]Y(Propargyl)[Orn][dL][Dab][Cha]VEC[Dab]-NH2; thioether N-14)
4.8 nM | CC(C)C[C@H]1NC(=O)[C@H](CCCN)NC(=O)[C@H](CCCNC(N)=O)NC(=O)[C@H](Cc2ccc(-c3ccccc3)cc2)NC(=O)[C@H](C2CCCCC2)NC(=O)[C@H](Cc2c[nH]c3ccccc23)NC(=O)[C@H](CC(=O)O)NC(=O)[C@H](Cc2ccc(OCC(=O)O)cc2)NC(=O)[C@H](CN)NC(=O)CSC[C@@H](C(=O)N[C@@H](C)C(N)=O)NC(=O)[C@H]([C@@H](C)O)NC(=O)[C@H](C(C)C)NC(=O)[C@H](CC2CCCCC2)NC(=O)[C@H](CCN)NC1=O [Compound 1357] ({CH2CO}-[Dap]Y(Carboxymethyl)DW[Chg][Bip][Cit][Orn][dL][Dab][Cha]VTCA-NH2; thioether N-14)
3.3 nM | C#CCOc1ccc(C[C@@H]2NC(=O)[C@H](Cc3cccc(C)c3)NC(=O)[C@H](CC(=O)O)NC(=O)[C@H](Cc3ccc(OCC(=O)O)cc3)NC(=O)[C@H](Cc3ccc(OCC(=O)O)cc3)NC(=O)CSC[C@@H](C(=O)N[C@@H](CCN)C(N)=O)NC(=O)[C@H](CCC(=O)O)NC(=O)[C@H](C(C)C)NC(=O)[C@H](CC3CCCCC3)NC(=O)[C@H](CCN)NC(=O)[C@@H](CC(C)C)NC(=O)[C@H](CCCN)NC(=O)[C@H](Cc3ccc(OCC(=O)O)cc3)NC(=O)[C@H](Cc3ccc(-c4ccccc4)cc3)NC2=O)cc1 [Compound 1834] ({CH2CO}-Y(Carboxymethyl)Y(Carboxymethyl)D[Phe(3-Me)]Y(Propargyl)[Bip]Y(Carboxymethyl)[Orn][dL][Dab][Cha]VEC[Dab]-NH2; thioether N-14)
2.5 nM | CCc1cc(O)ccc1-c1ccc(C[C@@H]2NC(=O)[C@H](Cc3cccc(C(F)(F)F)c3)NC(=O)[C@H](CC(=O)O)NC(=O)[C@H](Cc3ccc(C(=O)O)cc3)NC(=O)[C@H](CN3CCOCC3)NC(=O)CSC[C@@H](C(=O)N[C@@H](CCN)C(N)=O)NC(=O)[C@H](CCC(=O)O)NC(=O)[C@H](C(C)C)NC(=O)[C@H](CC3CCCCC3)NC(=O)[C@H](CCN)NC(=O)[C@@H](CC(C)C)NC(=O)[C@H](CCCN)NC(=O)[C@H](Cc3ccc(C(=O)O)cc3)NC(=O)[C@H](Cc3ccc(-c4ccccc4)cc3)NC2=O)cc1 [Example 2733] ({CH2CO}-[Ala(morpholin-4-yl)][Phe(4-COOH)]D[Phe(3-CF3)][Phe(4-(2-Et-4-HO-Ph))][Bip][Phe(4-COOH)][Orn][dL][Dab][Cha]VEC[Dab]-NH2; thioether N-14)
1.7 nM | Cc1ccccc1-c1ccc(C[C@@H]2NC(=O)[C@H](Cc3cccc(C(F)(F)F)c3)NC(=O)[C@H](CC(=O)O)NC(=O)[C@H](Cc3ccc(C(=O)O)cc3)NC(=O)[C@H](CN3CCOCC3)NC(=O)CSC[C@@H](C(=O)N[C@@H](CCN)C(N)=O)NC(=O)[C@H](CCC(=O)O)NC(=O)[C@H](C(C)C)NC(=O)[C@H](CC3CCCCC3)NC(=O)[C@H](CCN)NC(=O)[C@@H](CC(C)C)NC(=O)[C@H](CCCN)NC(=O)[C@H](Cc3ccc(C(=O)O)cc3)NC(=O)[C@H](Cc3ccc(-c4ccccc4)cc3)NC2=O)cn1 [Example 2732] ({CH2CO}-[Ala(morpholin-4-yl)][Phe(4-COOH)]D[Phe(3-CF3)][Ala(6-(2-MePh)pyridin-3-yl)][Bip][Phe(4-COOH)][Orn][dL][Dab][Cha]VEC[Dab]-NH2; thioether N-14)
